Measured values reported in US8940739B2, “Compound of a reverse-turn mimetic and a production method and use therefor” (JW Pharmaceutical Corporation, priority 2010, dated 2015).

tested on: MV-4-11 (human, Acute Myeloid Leukemia cell line) cells; experiment: Cell growth inhibition assay, GI50 of MV-4-11; format: cell-based; settings: Homo sapiens, MV4-11, 72 h, MV-4-11 cells
Description: The anti-proliferative activity (cell growth inhibition assay) of the compounds according to the present invention against AML (Acute Myeloid Leukemia) cancer cells was measured. […] The lower the GI50 value, the higher the anti-proliferative activity.
A cell growth Inhibition assay was performed to investigate the rate of inhibition of cell proliferation by the compounds of the present invention. MV-4-11 (human, Acute Myeloid Leukemia cell line) cells were cultured in Iscove's modified Dulbecco's medium (IMDM) including 10% fetal bovine serum (FBS), 1× penicillin/streptomycin (10,000 units/ml Penicillin, […] Streptomycin in 0.85% NaCl). MV-4-11 cells were harvested with the IMDM and 5×10^4 cells/well were transferred to each well of 96-well culture plates (Nunc, #167008).
The compounds of Examples 1 to 5 were exposed to serial dilution and duplicated for each concentration. For the serial dilution, the compounds of the present invention were repeatedly diluted with the same volume of media onto 96-well assay block (costar, #3956). After the dilution, each compound was added to each well.
Also, the background absorbance was measured during the treatment with the test compounds by replacing the test compound with IMDM in the negative control plate. The plates were incubated for three days (72 hours) at 37 in the humidified incubator containing 5% CO2. On the last day, 20 µl of a CellTiter 96 Aqueous One Solution (Promega #G3581) was added to the culture in each well and the plates were incubated for a few hours at 37 in the humidified incubator containing 5% CO2. After the incubation, the absorbance of each cell was measured at 490 nm using an EnVision (Perkinelmer, USA).
The GI50 values were calculated using a Prism 3.0 program.

In order of rising GI50:
1. C=CCN1CC(=O)N2[C@@H](Cc3ccc(O)cc3)C(=O)N(Cc3cccc4c(-c5ccc(NC(=O)N6CCN(C)CC6)nc5)cn(C)c34)C[C@@H]2N1C(=O)NCc1ccccc1 [Compound D-87]  1.3 nM
2. C=CCN1CC(=O)N2[C@@H](Cc3ccc(O)cc3)C(=O)N(Cc3cccc4c(-c5ccc(NC(=O)C6CCN(C(C)=O)CC6)nc5)cn(C)c34)C[C@@H]2N1C(=O)NCc1ccccc1 [Compound D-89]  1.3 nM
3. C=CCN1CC(=O)N2[C@@H](Cc3ccc(O)cc3)C(=O)N(Cc3cccc4c(C(=O)N(C)Cc5ccc(N(C)C)cc5)cn(C)c34)C[C@@H]2N1C(=O)NCc1ccccc1 [Compound F-46]  1.3 nM
4. C=CCN1CC(=O)N2[C@@H](Cc3ccc(O)cc3)C(=O)N(Cc3cccc4c(-c5ccc(NC(=O)NCC)nc5)cn(C)c34)C[C@@H]2N1C(=O)NCc1ccccc1 [Compound D-94]  1.5 nM
5. C=CCN1CC(=O)N2[C@@H](Cc3ccc(O)cc3)C(=O)N(Cc3cccc4c(C(=O)N(C)CCCNC(C)C)cn(C)c34)C[C@@H]2N1C(=O)NCc1ccccc1 [Compound F-19]  1.5 nM
6. C=CCN1CC(=O)N2[C@@H](Cc3ccc(O)cc3)C(=O)N(Cc3cccc4c(-c5ccc(NC(=O)NC6CCN(C(C)=O)CC6)cc5)cn(C)c34)C[C@@H]2N1C(=O)NCc1ccccc1 [Compound D-84]  1.7 nM
7. C=CCN1CC(=O)N2[C@@H](Cc3ccc(O)cc3)C(=O)N(Cc3cccc4c(C(=O)N(C)Cc5cccc(C)n5)cn(C)c34)C[C@@H]2N1C(=O)NCc1ccccc1 [Compound F-45]  1.7 nM
8. C=CCN1CC(=O)N2[C@@H](Cc3ccc(O)cc3)C(=O)N(Cc3cccc4c(C(=O)N(C)CCCN5CCN(C)CC5)cn(C)c34)C[C@@H]2N1C(=O)NCc1ccccc1 [Compound F-31]  1.9 nM
9. C=CCN1CC(=O)N2[C@@H](Cc3ccc(O)cc3)C(=O)N(Cc3cccc4c(C(=O)N5CCN6CCN(CC7CCCCC7)CC6C5)cn(C)c34)C[C@@H]2N1C(=O)NCc1ccccc1 (stereo partly drawn) [Compound E-46]  2 nM
10. C=CCN1CC(=O)N2[C@@H](Cc3ccc(O)cc3)C(=O)N(Cc3cccc4c(C(=O)N(C)CC(C)(C)CO)cn(C)c34)C[C@@H]2N1C(=O)NCc1ccccc1 [Compound F-8]  2 nM
11. C=CCN1CC(=O)N2[C@@H](Cc3ccc(O)cc3)C(=O)N(Cc3cccc4c(C(=O)N5CCN(Cc6ccccc6)CC5)cn(C)c34)C[C@@H]2N1C(=O)NCc1ccccc1 [Compound E-26]  2.3 nM
12. C=CCN1CC(=O)N2[C@@H](Cc3ccc(O)cc3)C(=O)N(Cc3cccc4c(-c5ccc(NC(=O)NC(C)C)nc5)cn(C)c34)C[C@@H]2N1C(=O)NCc1ccccc1 [Compound D-99]  2.7 nM
13. C=CCN1CC(=O)N2[C@@H](Cc3ccc(O)cc3)C(=O)N(Cc3cccc4c(C(=O)N5CCC(NC(=O)OC(C)(C)C)CC5)cn(C)c34)C[C@@H]2N1C(=O)NCc1ccccc1 [Compound E-56]  3.1 nM
14. C=CCN1CC(=O)N2[C@@H](Cc3ccc(O)cc3)C(=O)N(Cc3cccc4c(-c5ccc(C(=O)N6CCN(C)CC6)o5)cn(C)c34)C[C@@H]2N1C(=O)NCc1ccccc1 [Compound D-105]  3.7 nM
15. C=CCN1CC(=O)N2[C@@H](Cc3ccc(O)cc3)C(=O)N(Cc3cccc4c(C(=O)N5CCN(C6CC6)CC5)cn(C)c34)C[C@@H]2N1C(=O)NCc1ccccc1 [Compound E-17]  4.5 nM
16. C=CCN1CC(=O)N2[C@@H](Cc3ccc(O)cc3)C(=O)N(Cc3cccc4c(C(=O)NCc5cccc(C)n5)cn(C)c34)C[C@@H]2N1C(=O)NCc1ccccc1 [Compound F-44]  4.5 nM
17. C=CCN1CC(=O)N2[C@@H](Cc3ccc(O)cc3)C(=O)N(Cc3cccc4c(-c5ccc(NC(=O)Nc6ccc(OC)cc6)nc5)cn(C)c34)C[C@@H]2N1C(=O)NCc1ccccc1 [Compound D-86]  4.9 nM
18. C=CCN1CC(=O)N2[C@@H](Cc3ccc(O)cc3)C(=O)N(Cc3cccc4c(C(=O)N5CCN(Cc6cccc(OC)c6)CC5)cn(C)c34)C[C@@H]2N1C(=O)NCc1ccccc1 [Compound E-35]  5.1 nM
19. C=CCN1CC(=O)N2[C@@H](Cc3ccc(O)cc3)C(=O)N(Cc3cccc4c(-c5ccc(C(=O)NC)o5)cn(C)c34)C[C@@H]2N1C(=O)NCc1ccccc1 [Compound D-101]  5.8 nM
20. C=CCN1CC(=O)N2[C@@H](Cc3ccc(O)cc3)C(=O)N(Cc3cccc4c(C(=O)N5CCN(C(=O)OC(C)(C)C)CC5)cn(C)c34)C[C@@H]2N1C(=O)NCc1ccccc1 [Compound E-1]  5.8 nM
21. C=CCN1CC(=O)N2[C@@H](Cc3ccc(O)cc3)C(=O)N(Cc3cccc4c(C(=O)N5CCN(Cc6cccc(C)n6)CC5)cn(C)c34)C[C@@H]2N1C(=O)NCc1ccccc1 [Compound E-31]  6 nM
22. C=CCN1CC(=O)N2[C@@H](Cc3ccc(O)cc3)C(=O)N(Cc3cccc4c(C(=O)N(C)CCCc5c(C)nn(C)c5C)cn(C)c34)C[C@@H]2N1C(=O)NCc1ccccc1 [Compound F-38]  6.1 nM
23. C=CCN1CC(=O)N2[C@@H](Cc3ccc(O)cc3)C(=O)N(Cc3cccc4c(-c5ccc(C(=O)NC6CCN(C(C)C)CC6)o5)cn(C)c34)C[C@@H]2N1C(=O)NCc1ccccc1 [Compound D-104]  6.3 nM
24. C=CCN1CC(=O)N2[C@@H](Cc3ccc(O)cc3)C(=O)N(Cc3cccc4c(C(=O)N5CCN6CCN(CC7CCC7)CC6C5)cn(C)c34)C[C@@H]2N1C(=O)NCc1ccccc1 (stereo partly drawn) [Compound E-49]  6.9 nM
25. C=CCN1CC(=O)N2[C@@H](Cc3ccc(O)cc3)C(=O)N(Cc3cccc4c(C(=O)N5CCN(Cc6ccc(OC)cc6)CC5)cn(C)c34)C[C@@H]2N1C(=O)NCc1ccccc1 [Compound E-36]  8.4 nM
26. C=CCN1CC(=O)N2[C@@H](Cc3ccc(O)cc3)C(=O)N(Cc3cccc4c(C(=O)N5CCN(C(C)(C)C)CC5)cn(C)c34)C[C@@H]2N1C(=O)NCc1ccccc1 [Compound E-8]  8.9 nM
27. C=CCN1CC(=O)N2[C@@H](Cc3ccc(O)cc3)C(=O)N(Cc3cccc4c(C(=O)N5CCN(Cc6ccc(C#N)cc6)CC5)cn(C)c34)C[C@@H]2N1C(=O)NCc1ccccc1 [Compound E-33]  9 nM
28. C=CCN1CC(=O)N2[C@@H](Cc3ccc(O)cc3)C(=O)N(Cc3cccc4c(C(=O)NCc5ccccn5)cn(C)c34)C[C@@H]2N1C(=O)NCc1ccccc1 [Compound F-42]  9.1 nM
29. C=CCN1CC(=O)N2[C@@H](Cc3ccc(O)cc3)C(=O)N(Cc3cccc4c(C(=O)N(C)CCNC5CC5)cn(C)c34)C[C@@H]2N1C(=O)NCc1ccccc1 [Compound F-11]  10.4 nM
30. C=CCN1CC(=O)N2[C@@H](Cc3ccc(O)cc3)C(=O)N(Cc3cccc4c(-c5ccc(C(=O)NC6CCN(C)CC6)o5)cn(C)c34)C[C@@H]2N1C(=O)NCc1ccccc1 [Compound D-103]  10.8 nM
31. C=CCN1CC(=O)N2[C@@H](Cc3ccc(O)cc3)C(=O)N(Cc3cccc4c(C(=O)NCc5cccc(N6CCCC6)n5)cn(C)c34)C[C@@H]2N1C(=O)NCc1ccccc1 [Compound F-49]  11.4 nM
32. C=CCN1CC(=O)N2[C@@H](Cc3ccc(O)cc3)C(=O)N(Cc3cccc4c(C(=O)N(C)Cc5cccnc5)cn(C)c34)C[C@@H]2N1C(=O)NCc1ccccc1 [Compound F-41]  11.6 nM
33. C=CCN1CC(=O)N2[C@@H](Cc3ccc(O)cc3)C(=O)N(Cc3cccc4c(C(=O)N5CCN(Cc6ccc(C)cc6)CC5)cn(C)c34)C[C@@H]2N1C(=O)NCc1ccccc1 [Compound E-27]  13.5 nM
34. C=CCN1CC(=O)N2[C@@H](Cc3ccc(O)cc3)C(=O)N(Cc3cccc4c(C(=O)N5CCN(Cc6ccncc6)CC5)cn(C)c34)C[C@@H]2N1C(=O)NCc1ccccc1 [Compound E-30]  14.4 nM
35. C=CCN1CC(=O)N2[C@@H](Cc3ccc(O)cc3)C(=O)N(Cc3cccc4c(C(=O)N5CCN(c6ccc(O)cc6)CC5)cn(C)c34)C[C@@H]2N1C(=O)NCc1ccccc1 [Compound E-40]  15.4 nM
36. C=CCN1CC(=O)N2[C@@H](Cc3ccc(O)cc3)C(=O)N(Cc3cccc4c(C(=O)N5CCN(c6ccccc6)CC5)cn(C)c34)C[C@@H]2N1C(=O)NCc1ccccc1 [Compound E-37]  16.4 nM
37. C=CCN1CC(=O)N2[C@@H](Cc3ccc(O)cc3)C(=O)N(Cc3cccc4c(C(=O)N(C)Cc5ccncc5)cn(C)c34)C[C@@H]2N1C(=O)NCc1ccccc1 [Compound F-40]  17.2 nM
38. C=CCN1CC(=O)N2[C@@H](Cc3ccc(O)cc3)C(=O)N(Cc3cccc4c(C(=O)N(C)Cc5ccccn5)cn(C)c34)C[C@@H]2N1C(=O)NCc1ccccc1 [Compound F-43]  17.8 nM
39. C=CCN1CC(=O)N2[C@@H](Cc3ccc(O)cc3)C(=O)N(Cc3cccc4c(-c5ccc(NC(=O)NC6CCCCC6)nc5)cn(C)c34)C[C@@H]2N1C(=O)NCc1ccccc1 [Compound D-92]  19 nM
40. C=CCN1CC(=O)N2[C@@H](Cc3ccc(O)cc3)C(=O)N(Cc3cccc4c(C(=O)N5CCN(C6CCCC6)CC5)cn(C)c34)C[C@@H]2N1C(=O)NCc1ccccc1 [Compound E-18]  20.9 nM

same assay, conditions: MV-4-11 cells, 72 hours; read-out: MV4-11 GI50

In order of rising GI50:
1. C=CCN1CC(=O)N2[C@@H](Cc3ccc(O)cc3)C(=O)N(Cc3cccc4c(C(=O)N5CCN(Cc6ccccn6)CC5)cn(C)c34)C[C@@H]2N1C(=O)NCc1ccccc1 [Compound E-28]  5.6 nM
2. C=CCN1CC(=O)N2[C@@H](Cc3ccc(O)cc3)C(=O)N(Cc3cccc4c(C(=O)N5CCN(Cc6ccccn6)CC5)cn(C)c34)C[C@@H]2N1C(=O)NCc1ccccc1 [Compound E-29]  18.4 nM
